Assay results taken from patent US7576129B2, “Carboxylic acid compounds” (Ono Pharmaceutical Co., Ltd., priority 2003, dated 2009).

Assays:
Format in all cases: in vivo, rat
[1] = test system: pollakiuria model induced by sulprostone; assay: Pollakiuria model induced by sulprostone (urination frequency); conditions: male Crj: CD (SD) IGS rats, oral 3, 10, 30 and 100 mg/kg 0.5 hour before sulprostone s.c., 3 hours measurement
Experimental: A suppressive action of the compound of the present invention to a pollakiuria model induced by sulprostone was investigated as follows. Male Crj: CD (SD) IGS rats of body weight of about 300 g were used. Each of the compound of the present invention (3, 10, 30 and 100 mg/kg) and a 0.5% aqueous solution of methyl cellulose (5 mL/kg) as a control was orally administered. After 0.5 hour from oral administration of a test substance, sulprostone (0.2 mg/4 mL/kg) was subcutaneously administered. As a non-induced group, a 0.5% aqueous solution of methyl cellulose was orally administered and, after […], a physiological saline was subcutaneously administered. Measurement of urination was conducted from immediately after administration of sulprostone until 3 hours thereafter. Measurement of urination was done in such a manner that, under the condition of giving neither feed nor water, the animals were placed in a metabolic cage equipped with a urine measuring device and weight of the collected urine with a lapse of time was recorded using a data-collecting system. Incidentally, case numbers for each group were made 3 to 4 cases.

[2] = test system: carrageenin-induced hyperalgesia model; assay: Carrageenin-induced hyperalgesia model (escape latency, plantar test); conditions: male SD rats, oral 3, 10 and 30 mg/kg 1 hour before carrageenin, 3 hours after injection
Experimental: An analgesic effect of the compound of the present invention to carrageenin-induced hyperalgesia model which was an acute inflammation pain model was investigated as follows using escape latency as an index. Male rats of an SD strain of seven weeks age were used. Thermal stimulation was irradiated to right hind leg of each rat using a measuring device for a plantar test and the time until escape raising the leg was measured and used as the escape latency. Depending upon the escape latency, grouping was conducted where each group comprised 7 to 8 rats and each of the compound of the present invention (3, 10 and 30 mg/kg) and a 0.5% aqueous solution of methyl cellulose (5 mL/kg) as a control was orally administered. After 1 hour from the oral administration of a test substance, carrageenin (2 mg/100 μL) dissolved in a physiological saline was subcutaneously injected to the sole of right hind leg of the rat. The escape latency during 3 hours after injection of carrageenin was measured.

[3] = test system: adjuvant-induced arthritis model; assay: Pain reaction of adjuvant-induced arthritis model (squeaking reaction); conditions: Lewis male rats, oral, 1, 3, 10 and 30 mg/kg, observed 1-4 hours after administration
Experimental: A suppressive effect of the compound of the present invention to pain reaction of an adjuvant-induced arthritis model which is a pain model for chronic arthritis was investigated as follows using a squeaking reaction as an index. Lewis male rats of seven weeks age were used. After volume of the left hind leg of each rat was measured, 600 μg/100 μL of dried cells of Mycobacterium butyricum (Difco) suspended in liquid paraffin was injected as an adjuvant into paw skin of a right hind leg to prepare an adjuvant-arthritis rat. After 22 days from injection of the adjuvant, bending and stretching of a knee joint of the left hind leg were conducted for five times before oral administration of a test substance and the rats which squeaked for all of the five times were subjected to the experiment. Depending upon the volume of edema of left hind leg on the previous day, grouping was conducted where one group comprised ten rats. Each of the compound of the present invention (1, 3, 10 and 30 mg/kg) and a 0.5% aqueous solution of methyl cellulose (5 mL/kg) as a control was orally administered. An analgesic action was observed after 1, 2, 3 and 4 hour(s) from the administration.

In the case of `Cc1cc(C)cc([C@@H](CC(C)C)NC(=O)c2cc(COc3cc(F)ccc3C)ccc2CCC(=O)O)c1` [compound (I), 3-(2-((((1R)-1-(3,5-dimethylphenyl)-3-methylbutyl)amino)carbonyl)-4-(5-fluoro-2-methylphenoxymethyl)phenyl)propanoic acid], the “dose as from which urination frequency showed low values” [1] is reported as “not more than 30 mg/kg”, the “dose as from which escape latency was significantly high as compared with the control group” value [2] is reported as “not more than 10 mg/kg” and the “dose as from which individual positive for the analgesic action was noted” value [3] is reported as at most 10 mg/kg.
